Laboratory results published in patent US11952611B2, “Methods and systems for detection of antibiotic resistance” (Laboratory Corporation of America Holdings, priority 2017, dated 2024).

Legend:
Format in all cases: cell-based, Staphylococcus aureus
[1] = system: 12600 - MSSA; assay: Table 6, MSSA alone
Method: Bacterial strains were serially diluted and transferred to a 96-well plate at 135 μL per well. 15 μL of cefoxitin was added to the wells to reach a final concentration of 1.8 μg/mL. The plate was then sealed and incubated at 37° C. for 2 hours or 3 hours. 10 μL of recombinant phage (1.6×10^8 pfu/mL) was added to each well. The plate was then re-sealed and incubated at 37° C. for an additional 1 or 2 hours. A master mix was made containing 15 μL 5× lysis buffer, 50 μL luciferase assay buffer, and 1 μL luciferase substrate per well. 65 μL of master mix was added to each well. Luminescence from the reactions was read on a GLOMAX® Navigator and relative luminal units (RLU) for each reaction were plotted and analyzed. RLU values three times greater than an established background RLU level for LB (>750 RLU) were considered positive. The results, shown in Table 6, indicate that samples with MRSA (38 CFU) can be distinguished from samples containing MSSA (up to 5088 CFU) using a 3-hour antibiotic/1-hour phage incubation protocol. Positive results are in bold. In Table 6, CFU values (318 CFU and 156 CFU) were experimentally validated by direct plating.

[2] = system: MSSA; assay: Recombinant phage luciferase assay, oxacillin vs cefoxitin (Table 1), MSSA strains
Method: Bacterial strains were serially diluted to approximately 1×10^3 CFU/mL and transferred to a 96-well plate at 135 μL per well. 15 μL of oxacillin or cefoxitin were added to the wells to reach a final concentration of 1.0 μg/mL or 2.0 μg/mL of oxicillin or 2.0 μg/mL, 4.0 μg/mL, 8.0 μg/mL, or 10.0 μg/mL of cefoxitin. The plate was then sealed and incubated at 37° C. for 2 hours. 10 μL of recombinant phage (1.6×10^8 pfu/mL) was added to each well. The plate was then re-sealed and incubated at 37° C. for 2 hours. A master mix was made containing 15 μL 5× lysis buffer, 50 μL luciferase assay buffer, and 1 μL luciferase substrate per well. 65 μL of master mix was added to each well. Luminescence from the reactions was read on a GLOMAX® Navigator and relative luminal units (RLU) for each reaction were analyzed. RLU values three times greater than an established background RLU level for LB (>750 RLU) were considered positive. The results, shown in Table 1, indicate that the recombinant phage are capable of detecting the tested bacterial strains.

[3] = system: MSSA; assay: Optimization of cefoxitin concentration (Table 2), MSSA strains
Method: Bacterial strains were serially diluted to approximately 1×10^3 CFU/mL and transferred to a 96-well plate at 135 μL per well. 15 μL of cefoxitin was added to the wells to reach a final concentration of 1.4 μg/mL, 1.6 μg/mL, 1.8 μg/mL or 2.0 μg/mL. The plate was then sealed and incubated at 37° C. for 2 hours. 10 μL of recombinant phage (1.6×10^8 pfu/mL) was added to each well. The plate was then re-sealed and incubated at 37° C. for an additional 2 hours. A master mix was made containing 15 μL 5× lysis buffer, 50 μL luciferase assay buffer, and 1 μL luciferase substrate per well. 65 μL of master mix was added to each well. Luminescence from the reactions were read on a GLOMAX® Navigator and relative luminal units (RLU) for each reaction were plotted and analyzed. RLU values three times greater than an established background RLU level for LB (>750 RLU) were considered positive. The results, shown in Table 2, indicate that the recombinant phage are capable of detecting these bacterial strains. […] Positive results are in bold.

[4] = MSSA detected CFU 10176, MRSA 0
[5] = strain 12600 MSSA, detected CFU 389
[6] = strain AR0484 MSSA, detected CFU 153
[7] = strain AR0488 MSSA, detected CFU 285
[8] = strain AR0491 MSSA, detected CFU 300
[9] = strain 12600 MSSA, detected CFU 401
[10] = strain AR0484 MSSA, detected CFU 107
[11] = strain AR0485 MSSA, detected CFU 248
[12] = strain AR0486 MSSA, detected CFU 163
[13] = strain AR0487 MSSA, detected CFU 198
[14] = strain AR0488 MSSA, detected CFU 360
[15] = strain AR0489 MSSA, detected CFU 186
[16] = strain AR0490 MSSA, detected CFU 109
[17] = strain AR0491 MSSA, detected CFU 239
[18] = strain AR0492 MSSA, detected CFU 130
[19] = strain BAA-1721 MSSA, detected CFU 166

CO[C@@]1(NC(=O)Cc2cccs2)C(=O)N2C(C(=O)O)=C(COC(N)=O)CS[C@@H]21 [Cefoxitin, cefoxitin]
2 HR AB + 2 HR Phage 1.8 ug/mL ([1]; MSSA detected CFU 156, MRSA 0): 423 RLU
3 HR AB + 1 HR Phage 1.8 ug/mL ([1]; MSSA detected CFU 156, MRSA 0): 196 RLU
2 HR AB + 2 HR Phage 1.8 ug/mL ([1]; MSSA detected CFU 318, MRSA 0): 608 RLU
3 HR AB + 1 HR Phage 1.8 ug/mL ([1]; MSSA detected CFU 318, MRSA 0): 231 RLU
2 HR AB + 2 HR Phage 1.8 ug/mL ([1]; MSSA detected CFU 636, MRSA 0): 956 RLU
3 HR AB + 1 HR Phage 1.8 ug/mL ([1]; MSSA detected CFU 636, MRSA 0): 275 RLU
2 HR AB + 2 HR Phage 1.8 ug/mL ([1]; MSSA detected CFU 1272, MRSA 0): 1685 RLU
3 HR AB + 1 HR Phage 1.8 ug/mL ([1]; MSSA detected CFU 1272, MRSA 0): 321 RLU
2 HR AB + 2 HR Phage 1.8 ug/mL ([1]; MSSA detected CFU 2544, MRSA 0): 4715 RLU
3 HR AB + 1 HR Phage 1.8 ug/mL ([1]; MSSA detected CFU 2544, MRSA 0): 621 RLU
2 HR AB + 2 HR Phage 1.8 ug/mL ([1]; MSSA detected CFU 5088, MRSA 0): 8583 RLU
3 HR AB + 1 HR Phage 1.8 ug/mL ([1]; MSSA detected CFU 5088, MRSA 0): 901 RLU
2 HR AB + 2 HR Phage 1.8 ug/mL [1, 4]: 16340 RLU
3 HR AB + 1 HR Phage 1.8 ug/mL [1, 4]: 1098 RLU
detection after incubation with cefoxitin ([2]; 2 ug/mL): selective loss of MSSA detection
susceptibility of MSSA strains ([2]; 2 ug/mL): susceptible
Cefoxitin (RLU) 2 ug/mL [2, 5]: 797 RLU
Cefoxitin (RLU) 4 ug/mL [2, 5]: 475 RLU
Cefoxitin (RLU) 8 ug/mL [2, 5]: 332 RLU
Cefoxitin (RLU) 10 ug/mL [2, 5]: 277 RLU
Cefoxitin (RLU) 2 ug/mL [2, 6]: 227 RLU
Cefoxitin (RLU) 4 ug/mL [2, 6]: 195 RLU
Cefoxitin (RLU) 8 ug/mL [2, 6]: 197 RLU
Cefoxitin (RLU) 10 ug/mL [2, 6]: 204 RLU
Cefoxitin (RLU) 2 ug/mL [2, 7]: 254 RLU
Cefoxitin (RLU) 4 ug/mL [2, 7]: 220 RLU
Cefoxitin (RLU) 8 ug/mL [2, 7]: 213 RLU
Cefoxitin (RLU) 10 ug/mL [2, 7]: 229 RLU
Cefoxitin (RLU) 2 ug/mL [2, 8]: 207 RLU
Cefoxitin (RLU) 4 ug/mL [2, 8]: 234 RLU
Cefoxitin (RLU) 8 ug/mL [2, 8]: 187 RLU
Cefoxitin (RLU) 10 ug/mL [2, 8]: 191 RLU
effect on positive signal ([3]; 1.8 ug/mL, most MSSA strains): selectively inhibit a positive signal
Cefoxitin Concentration 1.4 ug/mL [3, 9]: 2489 RLU
Cefoxitin Concentration 1.6 ug/mL [3, 9]: 1596 RLU
Cefoxitin Concentration 1.8 ug/mL [3, 9]: 974 RLU
Cefoxitin Concentration 2 ug/mL [3, 9]: 750 RLU
Cefoxitin Concentration 1.4 ug/mL [3, 10]: 174 RLU
Cefoxitin Concentration 1.6 ug/mL [3, 10]: 176 RLU
Cefoxitin Concentration 1.8 ug/mL [3, 10]: 187 RLU
Cefoxitin Concentration 2 ug/mL [3, 10]: 181 RLU
Cefoxitin Concentration 1.4 ug/mL [3, 11]: 1328 RLU
Cefoxitin Concentration 1.6 ug/mL [3, 11]: 812 RLU
Cefoxitin Concentration 1.8 ug/mL [3, 11]: 655 RLU
Cefoxitin Concentration 2 ug/mL [3, 11]: 404 RLU
Cefoxitin Concentration 1.4 ug/mL [3, 12]: 4238 RLU
Cefoxitin Concentration 1.6 ug/mL [3, 12]: 1743 RLU
Cefoxitin Concentration 1.8 ug/mL [3, 12]: 1099 RLU
Cefoxitin Concentration 2 ug/mL [3, 12]: 794 RLU
Cefoxitin Concentration 1.4 ug/mL [3, 13]: 336 RLU
Cefoxitin Concentration 1.6 ug/mL [3, 13]: 227 RLU
Cefoxitin Concentration 1.8 ug/mL [3, 13]: 204 RLU
Cefoxitin Concentration 2 ug/mL [3, 13]: 165 RLU
Cefoxitin Concentration 1.4 ug/mL [3, 14]: 2274 RLU
Cefoxitin Concentration 1.6 ug/mL [3, 14]: 1149 RLU
Cefoxitin Concentration 1.8 ug/mL [3, 14]: 402 RLU
Cefoxitin Concentration 2 ug/mL [3, 14]: 256 RLU
Cefoxitin Concentration 1.4 ug/mL [3, 15]: 6208 RLU
Cefoxitin Concentration 1.6 ug/mL [3, 15]: 3172 RLU
Cefoxitin Concentration 1.8 ug/mL [3, 15]: 2029 RLU
Cefoxitin Concentration 2 ug/mL [3, 15]: 870 RLU
Cefoxitin Concentration 1.4 ug/mL [3, 16]: 1277 RLU
Cefoxitin Concentration 1.6 ug/mL [3, 16]: 598 RLU
Cefoxitin Concentration 1.8 ug/mL [3, 16]: 423 RLU
Cefoxitin Concentration 2 ug/mL [3, 16]: 258 RLU
Cefoxitin Concentration 1.4 ug/mL [3, 17]: 1438 RLU
Cefoxitin Concentration 1.6 ug/mL [3, 17]: 676 RLU
Cefoxitin Concentration 1.8 ug/mL [3, 17]: 518 RLU
Cefoxitin Concentration 2 ug/mL [3, 17]: 338 RLU
Cefoxitin Concentration 1.4 ug/mL [3, 18]: 1883 RLU
Cefoxitin Concentration 1.6 ug/mL [3, 18]: 839 RLU
Cefoxitin Concentration 1.8 ug/mL [3, 18]: 556 RLU
Cefoxitin Concentration 2 ug/mL [3, 18]: 246 RLU
Cefoxitin Concentration 1.4 ug/mL [3, 19]: 2753 RLU
Cefoxitin Concentration 1.6 ug/mL [3, 19]: 1087 RLU
Cefoxitin Concentration 1.8 ug/mL [3, 19]: 441 RLU
Cefoxitin Concentration 2 ug/mL [3, 19]: 258 RLU
